Experimental data reported in patent US20210208130A1, “ASSAYS FOR CELL-BASED THERAPIES OR TREATMENTS” (The Regents of the University of California, priority 2018, published 2021).

Test system: Human Retinoblastoma (hRB) Y79 (ATCC HTB-18) cells
Test: Fluorescence-based (CellTiter-Blue, resazurin) cell viability potency assay with sodium butyrate insult
Settings: 2, 4, 8 mM sodium butyrate; 72 hours incubation
Text: In the following examples, Human Retinoblastoma (hRB) Y79 (ATCC® HTB-18™) cells were expanded and maintained for use by culturing in ATCC®-formulated RPMI-1640 medium supplemented with 20% fetal bovine serum. The cells were maintained according to ATCC® recommendations. Human retinal progenitor cells (hRPCs) and human retinal pigment epithelium cells (hRPE cells) were isolated from 18-20 week human fetuses and propagated in standard medium (SM) comprising Advanced DMEM/F12 with 1×N−2 supplement, 1×GlutaMax-1, 20 ng/ml human FGF-basic protein and 20 ng/ml human EGF protein.
In the following experiments, conditioned medium (CM) was collected from hRPCs, hRB cells or hRPE grown in SM for 48 hours (with replacement of the SM after 24 hours). Cells were harvested and counted after each CM collection.
First, 12.5×10^3, 2.5×10^4, 5.0×10^4, 1.0×10^5 and 2.0×10^5 Human Retinoblastoma (hRB) Y79 (ATCC® HTB-18™) cells were plated in five separate wells of a 96 well assay plate and incubated in 50 μl SM. […] Resorufin is highly fluorescent, meaning that the fluorescence signal generated can be used to determine the viability of the cells incubated with Resazurin.
The fluorescence of each well was measured after incubation with resazurin. Fluorescence signals were read at an excitation wavelength of 520 nm and an emission wavelength of 580-640 nm. […]

## CCCC(=O)[O-].[Na+] [sodium butyrate]
  fluorescence signal (cell proliferation and viability) with higher concentrations of sodium butyrate: decreased fluorescence signals
